{"source": "patent US20210369631A1", "about": "“A LIPID-POLYMER HYBRID NANOPARTICLE” (NANOBRID INNOVATIONS PRIVATE LIMITED, priority 2019, published 2021)", "origin": "cited, not measured here", "data": [{"values": [{"smiles": "O=C(CCCCCCC(=O)Nc1ccccc1)NO", "note": "[Vorinostat]", "log P": 1.44}, {"smiles": "COC1=C(OC)C(=O)C(C/C=C(\\C)CC/C=C(\\C)CC/C=C(\\C)CC/C=C(\\C)CC/C=C(\\C)CC/C=C(\\C)CC/C=C(\\C)CC/C=C(\\C)CC/C=C(\\C)CCC=C(C)C)=C(C)C1=O", "note": "[coenzyme Q10]", "log P": 10}, {"smiles": "CCC(=O)O[C@]1(C(=O)CCl)[C@@H](C)C[C@H]2[C@@H]3CCC4=CC(=O)C=C[C@]4(C)[C@@]3(F)[C@@H](O)C[C@@]21C", "note": "[clobetasol propionate]", "log P": 3.49}]}]}
